According to PubChem BioAssay (NCI):
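The compound was tested at five concentrations on cells cultured in 96-well plates, with a 48-hour exposure period. TGI denotes the concentration required for complete inhibition of growth.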

Legend:
Test in all cases: NCI tumour cell line growth inhibition, 48 h
DLD-1 colon = test system: DLD-1 colon
DMS 114 small cell lung = test system: DMS 114 small cell lung
HOP-18 NSCLC = test system: HOP-18 NSCLC
M19-MEL melanoma = test system: M19-MEL melanoma
SNB-78 CNS = test system: SNB-78 CNS

Measured: TGI

Cn1ccnc1C(O)(c1nccn1C)c1nccn1C
> 100 µM: all assays above
